Values of other authors as cited in patent US8871750B2, “Use of aromatase inhibitors for endometrial thinning in preparation for surgical procedures on the endometrial cavity and uterus” (Wayne State University, priority 2004, dated 2014).

Columns and labels:
[1] = postmenopausal breast cancer treatment
endometrium [2] = settings: small, randomized study
endometrium [3] = settings: in vivo

Structure (SMILES) | effect on endometrial thickness (endometrium [2]) | also measured
CCC1(c2ccc(N)cc2)CCC(=O)NC1=O (centres unmarked) [aminoglutethimide] |  | patients stopping treatment because of side effects (lethargy, rashes, nausea, fever) [1]: 8-15%
CC(=O)O[C@]1(C(C)=O)CC[C@H]2[C@@H]3C=C(Cl)C4=CC(=O)[C@@H]5C[C@@H]5[C@]4(C)[C@H]3CC[C@@]21C [cyproterone acetate] | significant reduction | 
CC(=O)O[C@]1(C(C)=O)CC[C@H]2[C@@H]3C[C@H](C)C4=CC(=O)CC[C@]4(C)[C@H]3CC[C@@]21C [medroxyprogesterone acetate] | no effect | 
CC#C[C@]1(O)CC[C@H]2[C@@H]3CCC4=CC(=O)CCC4=C3[C@@H](c3ccc(N(C)C)cc3)C[C@@]21C [mifepristone] |  | effect on endometrium and menstrual bleeding (endometrium [3]): marked endometrial ECM breakdown and excessive menstrual bleeding
C#C[C@]1(O)CC[C@H]2[C@@H]3CCC4=CC(=O)CC[C@@H]4[C@H]3CC[C@@]21C [norethisterone] | no effect | 
